From patent US7572913B2, “4-substituted piperidine derivatives” (Bioaxone Therapeutique Inc., priority 2004, dated 2009)
Where “and” joins values, the source holds several entries; their conditions need not be identical. Identical values can stand only once. Like-named read-outs stand apart in the source and are kept apart here.

Experiments:
[1] = tested on: HEC-1B cells; conditions: 72 hours incubation; different concentrations; Alamar Blue
Method: For this assay, cells are thawed and passaged at least one time before the experiment. Cells are grown in a culture dish in media supplemented with serum and supplements appropriate for the test cell line. When they reach logarithmic growth, the cells are trypsinized to detach them from the culture dish and are counted. The cell pellet is resuspended and adjusted to 2-5×10^4 cells/ml. A 96-well microplate is used for the experiment and cells are plated at a density of 1000 to 5000 cells/well in 100 μL of growth media. The seeding density is noted to ensure that the cells in the control wells are not overgrown after the total incubation time. […] At the end of the incubation period, the fluorescence intensity is read with a 96-well microplate reader (excitation 530-560 nm; emission 590 nm), with bottom reading. The fluorescence generated in the AlamarBlue™ assay can be stopped and stabilized by the addition of 3% SDS. […]
For each concentration of test article, a % growth is calculated using the following equation, wherein • T0=fluorescence units at the time of test article addition (time 0) • C=fluorescence units for control (no test article) • Ti=fluorescence unit for test article (different dilution)
Cadmium sulfate hydrate (CAD) was used as a positive control. Following treatment, the rate of proliferation was measured using the Alamar Blue assay.

[2] = tested on: HUVEC cells; assay: HUVEC capillary tube formation on ECMatrix; assay type: cell-based, human; conditions: for relative amount of tube formation: 15,000 HUVEC cells on ECMatrix, 6-8 h
From the text: HUVEC cells will form capillary tubes when plated on protein substrates composed of proteins found in the extracellular matrix. Typical substrates useful for experiments with HUVEC cells are Matrigel, fibronectin or collagen. Matrigel is composed of several proteins that make up the extracellular matrix. Extracelluar matrix substrates can be plated in tissue culture dishes as 3-dimensional cell culture substrates. Another reagent that can be used as a substrate is ECMatrix™ (Chemicon International, Temecula, Calif.), a reconstituted basement membrane matrix of proteins derived from the Engelbreth Holm-Swarm (EHS) mouse tumor. This substrate gels rapidly at 22-35° C. Thus, ECMatrix™ is thawed overnight on ice or in +4° C. A 96-well plate is pre-chilled, and 100μl of the ECMatrix solution is added to each well. The plate is incubated at 37° C. for at least one hour to allow the matrix solution to solidify. The HUVEC cells are harvested and resuspended in a standard cell growth media supplemented with endothelial cell growth supplements. The presence of serum (0.5-10%) is optional. EGM (endothelial cell growth media) can be used. The HUVEC cells are plated at a density of 5×10^3 to 1×10^4 cells per well onto the surface of the polymerized ECMatrix™, and then incubated overnight in a tissue-culture incubator. Cellular network structures are fully developed by 12 to 18 h, with the first signs apparent after 5-6 h. After 24 h, the cells begin to undergo apoptosis. To study the effect of anti-angiogenic factors, they can be added at the time of cell plating. Optional tissue culture vary depending on the cell type, age, and media growth conditions. The tubes are inspected under an inverted light microscope at 40×-200× magnification. Since there is a lack of contrast of the cellular networks, the cultures can be stained with any of the common cell staining procedures such as Diff-Quick or Wright-Giemsa or crystal-violet. The total capillary tube length measurement method is used to quantify the results. The total length of all the capillary tubes in several (3-10) view-fields is measured by Northern Eclipse software.
Photos are representative of 5 separate experiments.
Tranilast is used as a positive control. For this experiment, 15,000 HUVEC cells were plated on ECMatrix™ and incubated for 6-8 h alone before quantification. Results are presented as mean± SEM for one experiment analyzed in duplicate. […] It is used as a positive control.

[3] = tested on: HUVEC cells; assay: Endothelial cell migration, Boyden chamber with VEGF; assay type: cell-based, human; conditions: 50 μM; 20 h; 10 ng/mL VEGF; fibronectin-coated transwells
Method: A common assay uses Boyden or Transwell chambers, a compartmentalized cell cultures system. Cells are plated in the upper compartment of the Transwell chamber, and the ability of a compound under evaluation to block cell migration through, for example the pores of a Fluoroblok membrane, to the bottom compartment is measured. […] Typically, a chemoattractant is added to the bottom well or compartment. In the case of endothelial cells, a useful chemoattractant is vascular endothelial growth factor (VEGF). […] Experiments can be performed in 24-well plates (individual insert or multiwell insert) or in 96-multiwell insert plates with appropriate correction for volume and cell density. […] Following incubation with the cell dye, fluorescence from invaded cells is read in a fluorescence plate reader with bottom reading capabilities at excitation/emission wavelengths of 485/530 nm without further manipulation. Only those labeled cells that have migrated through the pores of the Fluoroblok membrane will be detected.
The data may be expressed as either fluorescent units (FU) or as “fold migration”, i.e., the FU value of the cells migrating through the fibronectin coated insert membrane in response to a chemoattractant with inhibitor relative to the FU value of a control, i.e., without inhibitor. […]

[4] = target: T1, ROCKII (Rattus norvegicus, UniProt Q62868); assay: ROCKII inhibition at a single concentration of 10 μM (selectivity histogram, Table 3); assay type: biochemical; conditions: for Percent Rock inhibition at 10 micromolar: Table 3, compound at 10 micromolar
T1 construct: purchased Upstate Ltd. (United Kingdom)
Method: Compounds of this invention can be evaluated for kinase inhibition activity as solutions in 100% DMSO at a concentration of 10 μM added to GSK3β(h) and to ROCK-II(r) with ATP present at a concentration of 100 μM. Samples of compounds of this invention can be tested at 10 μM.
The data can be presented as relative ROCK kinase inhibition at a reference compound concentration of 3.5 uM and at 35 μM, wherein 0 signifies complete inhibition under the ATP concentration tested (100 μM). ROCK kinase activity is the opposite of ROCK kinase inhibition, and is compared with the GSKB kinase activity.
(§1) Experiments were done in duplicate. ATP was present at 100 μM in the assay.
(§2) The values were expressed in a percentage of inhibition of each kinase. Experiments were done in duplicate. ATP was present at 100 μM in the assay.
(§3) Percent net neurite outgrowth at 35 micromolar concentrations are presented in Table 3 together with percent Rock inhibition at 10 micromolar for three compounds designated BA-1043, BA-1049, and BA-1050. […] It should be noted that percent Rock activity is equal to 100% minus percent Rock inhibition.

[5] = target: ROCKI (Homo sapiens, UniProt Q13464); conditions: ATP 100 μM, duplicate
Method: as §1, §2

[6] = tested on: Caco-2 cells; conditions: for B − A/A − B Papp ratio: Caco-2 monolayer
Method: After incubation, samples are taken from the apical and basolateral compartment and the concentration of the test compound is determined by LCMS (liquid chromatography/mass spectroscopy).
Stock cultures are sub-cultured every 7 days when cells have reached 80-90% confluency. Studies are conducted with Caco-2 cells, used between passage 21 to 40. Cells are plated on Transwell™ inserts at a density of 1×10^4 cells/well in 24-well culture plates. Cells are incubated at 37° C. under 5% CO2 atmosphere, and media (MEM Earles medium containing 10% FBS, 0.1 mM non-essential amino acids and 1 mM sodium pyruvate) are changed 3 times per week. Cells are used for permeability studies between 20 to 22 days after seeding. On the day of the assay, cell monolayers are washed 3 times. Each wash consists of aspirating liquid from the apical (A) and basolateral (B) sides, and adding 0.5 and 1 mL, respectively, of fresh Dulbecco's phosphate-buffered saline with Mg^2+ and Ca^2+, pH 7.4 (PBS). After the final wash, a volt-ohm-meter is used to determine the trans-epithelial electrical resistance (TEER), a measure of the integrity of the monolayer. Cells are not be used if the TEER values are less than 200 ohms/cm^2. Working solutions of the test compounds are prepared in PBS. […] For each test compound and standard, apical to basolateral (A to B) and basolateral to apical (B to A) transport is measured. The final volume on the basolateral side is 1 mL; the final volume on the apical side is 0.3 mL. The test compound working solution or radiolabeled standard solution is added to the ‘donor’ side. Blank buffer is added to the ‘acceptor’ side. […] The permeability of each compound and control is measured by sampling 200μL of medium from the acceptor compartment at time zero and following 60 minutes of incubation. […] A 3 mL aliquot of liquid scintillant is added to the vials, and disintegrations per minute (dpm) are determined in a liquid scintillation counter. […] The permeability of Lucifer Yellow is measured by sampling 100 μL of medium from the basolateral compartment following 60 minutes of incubation. […]

[7] = tested on: human plasma proteins; conditions: for Bound (%) / Unbound (%): equilibrium dialysis 24 h, 37° C.
From the text: Plasma or serum protein binding assays using the equilibrium dialysis method are used to determine drug availability. Equilibrium dialysis studies using a 96-well microplate format or using conventional 2-chambered Teflon dialysis cells can be used to determine plasma or serum binding, and LC/MS/MS analysis is used for test compound quantification. The Teflon dialysis cell system is commonly used to determine the time to reach equilibrium, the fraction of a compound bound and unbound to plasma proteins and the effect of concentration on the extent of binding. Test compound quantification is performed by HPLC or LC/MS/MS analysis.
To perform equilibrium dialysis the following procedures can be used. To 0.990 mL of thawed plasma (37° C.), a 10 μL aliquot of the stock solutions is added for test compound concentrations of 35 μM. An appropriate volume of buffer (Dulbecco's phosphate buffered saline, pH 7.4) is spiked with each test compound at a concentration of 35 μM. Duplicate aliquots (130 μL) of each spiked plasma and buffer solution are collected prior to dialysis into labeled 1.5 mL polypropylene tubes and stored frozen at −40° C. […] Equilibrium dialysis is performed in a 96-well Teflon dialysis unit. Each well of the unit consists of two chambers separated by a vertically aligned dialysis membrane (regenerated cellulose) with a molecular weight cut-off of 12-14 KDa. The equilibrium dialysis membranes are first pre-soaked in deionized water for 30 min, then soaked in 20% ethanol for 20 min, followed by rinsing twice with deionized water. The equilibrium dialysis apparatus is assembled according to the manufacturer's directions. One chamber of each well is filled with 150 μL of blank buffer (to prevent membrane dehydration). Aliquots (150 μL) of spiked plasma or spiked buffer are added to the opposing chamber in each well. The top of the plate is sealed with an adhesive sealing film to prevent evaporation and to maintain constant pH during incubation. All dialysis experiments with the test compounds and standards are assessed using duplicate samples. The dialysis apparatus is incubated at 37° C. in an orbital shaker/incubator (Lab-Line Enviro) samples are collected following 24 hours of incubation. Samples containing the test compounds are stored frozen at −70° C. until analysis. Samples (100 μL) containing the radiolabels are added and mixed by vortex. The disintegrations per minute (dpm) in each vial are measured with a liquid scintillation counter. The fraction of each test compound and standard unbound (fu) to human serum proteins is calculated according to the following equation:
[formula] wherein Cbuffer and Cplasma represent the concentration of the compound measured in the buffer and plasma chambers, respectively, following dialysis. The fraction bound (fb) to the plasma proteins is determined as: 1−fu.

[8] = tested on: NG108 cells; assay: Bioassay of neurite outgrowth in NG108 cells on plastic; assay type: cell-based; conditions: compound at 35 micromolar
From the text: as §3

[9] = target: PRK2 (Homo sapiens, UniProt Q16513); conditions: FIG. 5; compound at 10 μM; ATP 100 μM; duplicate
Method: Samples can also be tested at 10 μM against CDK5/p35(h), JNK1α1(h), MAPK1(h), PKA(b), PKCα(h), PRK2(h), ROCK-II(r), […], PKBα(h), and Fyn(h) with ATP at 100 μM.
as §2

[10] = tested on: Caki cells (human renal cancer line) subcutaneous tumors; conditions: 50 μL PBS with 40 μM E-23a injected into tumor every day for two weeks; 6 mice; vehicle control 304%
Method: An in vivo model to test anti-proliferative activity of test compounds is a subcutaneous (s.c.) tumor model. In this model, human cancer cells are seeded into mice by a subcutaneous injection. Typically immune-compromised mouse cell lines are used, such as CD-1 nude mice, to prevent a graft rejection response. The test compound is administered as a formulation in a pharmaceutically acceptable vehicle suitable for injection use, such as isotonic phosphate buffered saline (PBS), by injection into the tumor. Different dosing schedules can be tested and compared with mice receiving injection of vehicle control. Before implantation into an animal, tumor cells are expanded in their specific tissue culture medium. Medium is changed 2 to 3 times per week. […] The tumor growth is monitored twice a week. Tumor volume is determined with a digital caliper and calculated using the formula: width^2×length×0.5. The length is taken at the basis of the tumors between the two most distant points of the tumor mass, whereas the width is measured right-angled to the length. […] Tumor volume and animal body weight are recorded twice a week.
Caki cells, which are a human renal cancer line were grown in tissue culture. […] Tumors were evaluated after 2 weeks of treatment after the final injection.

[11] = target: ROCK-II(h) (Homo sapiens, UniProt O75116); conditions: for % Control (single replicate) / Activity (% Control): ATP 100 micromolar; for % Control (single replicate): individual replicates; for Activity (% Control): mean of duplicate
Method: ROCK II (purchased from Upstate, Lake Placid, N.Y.) activity is assayed in 20 mM MOPS, pH 7.2, 25 mM β-glycerophosphate, 5 mM EGTA, 1 mM sodium orthovanadate, 1 mM dithiothreitol with dephosphorylated myelin basic protein (MBP, 0.2 mg/ml) as substrate with or without addition of a reference Rho kinase inhibitor. Activity assay reactions are performed for 30 min at 30° C. in 50 μl volumes using radiolabeled [32P] ATP (from Perkin-Elmer). The concentrations of ATP and magnesium chloride are 100 μM and 75 mM respectively. Assay reactions are initiated by adding Mg2+/ATP to each reaction mixture and are terminated by spotting 40 μl of each reaction mixture onto phosphocellulose paper (P81 paper, Whatman), followed by washes in 0.75% phosphoric acid to remove ATP followed by drying. The spotted paper is placed in scintillation cocktail and counted to measure 32P incorporation. Radioactivity is measured using a scintillation counter. Percent activity for a particular concentration of inhibitor is calculated as 100*(a−b)/(c−b), where a=cpm (enzyme+inhibitor), b=cpm (autophosphorylation of substrate and kinase) and c=cpm (enzyme−inhibitor). A dose-response chart is prepared for each inhibitor compound evaluated, then an IC50 (inhibitor concentration at 50% inhibition) determination is made as a measure of the potency of the compound as an inhibitor of Rho kinase. A plot of the log of concentration of test inhibitor compound (x axis) and the percent inhibition of kinase activity (y axis) is prepared. […] Experiments are done in duplicate or triplicate. ROCK II and dephosphorylated myelin basic protein (MBP) can be purchased from Upstate (Lake Placid, N.Y.). ATP is from Boehringer Mannheim and [γ-32P] ATP is from Perkin-Elmer. ROCK-II(h) is human ROCK-II.
Kinase inhibitors frequently compete with ATP binding and are ATP-competitive. Drug concentration required for 50% inhibition (IC50) depends on the concentration of ATP used in the assays.
An IC50 value for a compound of this invention can be determined from a plot of concentration of compound of this invention versus kinase activity of ROCK-II(h). The IC50 value for a compound of this invention can be expressed in units of micromolar, nanomolar, picomolar, and the like.
In the table, the concentration of the rho kinase inhibitor is micromolar, CPM is counts per minute, and SD is standard deviation. The rho kinase inhibitor activity was tested in duplicate. In each case, the kinase activity is expressed as a percentage of that in control incubations. IC50 values were derived by PRISM at Upstate. ATP concentration was 100 micromolar.

[12] = target: MSK1 (Homo sapiens, UniProt O75582); conditions: FIG. 5; compound at 10 μM; ATP 100 μM; duplicate
Method: as §2

[13] = patients treated for stroke; cited from earlier work

ROCK-II(h), sequence (O75116 whole entry): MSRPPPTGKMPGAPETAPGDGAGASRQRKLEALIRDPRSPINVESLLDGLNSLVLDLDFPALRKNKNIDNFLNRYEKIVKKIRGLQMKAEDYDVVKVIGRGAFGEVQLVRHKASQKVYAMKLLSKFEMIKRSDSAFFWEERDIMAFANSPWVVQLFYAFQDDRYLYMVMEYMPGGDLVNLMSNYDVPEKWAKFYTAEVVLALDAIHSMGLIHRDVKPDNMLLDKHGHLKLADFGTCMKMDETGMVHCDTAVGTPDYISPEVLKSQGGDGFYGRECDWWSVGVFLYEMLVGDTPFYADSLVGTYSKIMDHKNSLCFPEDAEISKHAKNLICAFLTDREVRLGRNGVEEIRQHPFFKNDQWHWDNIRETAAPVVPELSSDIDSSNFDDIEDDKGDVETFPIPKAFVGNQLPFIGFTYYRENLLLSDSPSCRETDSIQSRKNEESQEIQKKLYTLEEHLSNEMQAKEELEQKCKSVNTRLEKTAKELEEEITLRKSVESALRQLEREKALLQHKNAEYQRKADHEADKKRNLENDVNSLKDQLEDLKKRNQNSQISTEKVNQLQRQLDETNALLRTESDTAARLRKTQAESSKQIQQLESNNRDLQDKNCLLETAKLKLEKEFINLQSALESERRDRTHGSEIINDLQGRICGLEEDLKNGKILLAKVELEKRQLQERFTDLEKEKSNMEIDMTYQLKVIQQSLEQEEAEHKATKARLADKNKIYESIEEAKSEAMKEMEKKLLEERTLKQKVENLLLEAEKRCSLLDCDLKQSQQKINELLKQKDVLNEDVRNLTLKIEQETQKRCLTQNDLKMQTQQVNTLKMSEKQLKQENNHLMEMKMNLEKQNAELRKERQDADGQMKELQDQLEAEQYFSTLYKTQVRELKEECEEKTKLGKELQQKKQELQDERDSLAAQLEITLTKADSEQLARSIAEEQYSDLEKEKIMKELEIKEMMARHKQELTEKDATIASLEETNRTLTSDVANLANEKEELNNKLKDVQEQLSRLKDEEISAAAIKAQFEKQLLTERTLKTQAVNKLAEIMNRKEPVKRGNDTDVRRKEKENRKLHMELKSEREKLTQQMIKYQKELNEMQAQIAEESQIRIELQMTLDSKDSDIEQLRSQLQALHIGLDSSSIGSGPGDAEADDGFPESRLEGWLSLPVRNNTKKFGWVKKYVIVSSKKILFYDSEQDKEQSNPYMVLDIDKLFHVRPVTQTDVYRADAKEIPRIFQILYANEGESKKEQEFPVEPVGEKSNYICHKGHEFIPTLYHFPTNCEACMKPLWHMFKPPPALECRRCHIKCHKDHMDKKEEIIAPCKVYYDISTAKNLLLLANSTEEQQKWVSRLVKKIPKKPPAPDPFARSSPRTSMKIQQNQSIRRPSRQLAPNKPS
T1 sequence (Q62868 whole entry): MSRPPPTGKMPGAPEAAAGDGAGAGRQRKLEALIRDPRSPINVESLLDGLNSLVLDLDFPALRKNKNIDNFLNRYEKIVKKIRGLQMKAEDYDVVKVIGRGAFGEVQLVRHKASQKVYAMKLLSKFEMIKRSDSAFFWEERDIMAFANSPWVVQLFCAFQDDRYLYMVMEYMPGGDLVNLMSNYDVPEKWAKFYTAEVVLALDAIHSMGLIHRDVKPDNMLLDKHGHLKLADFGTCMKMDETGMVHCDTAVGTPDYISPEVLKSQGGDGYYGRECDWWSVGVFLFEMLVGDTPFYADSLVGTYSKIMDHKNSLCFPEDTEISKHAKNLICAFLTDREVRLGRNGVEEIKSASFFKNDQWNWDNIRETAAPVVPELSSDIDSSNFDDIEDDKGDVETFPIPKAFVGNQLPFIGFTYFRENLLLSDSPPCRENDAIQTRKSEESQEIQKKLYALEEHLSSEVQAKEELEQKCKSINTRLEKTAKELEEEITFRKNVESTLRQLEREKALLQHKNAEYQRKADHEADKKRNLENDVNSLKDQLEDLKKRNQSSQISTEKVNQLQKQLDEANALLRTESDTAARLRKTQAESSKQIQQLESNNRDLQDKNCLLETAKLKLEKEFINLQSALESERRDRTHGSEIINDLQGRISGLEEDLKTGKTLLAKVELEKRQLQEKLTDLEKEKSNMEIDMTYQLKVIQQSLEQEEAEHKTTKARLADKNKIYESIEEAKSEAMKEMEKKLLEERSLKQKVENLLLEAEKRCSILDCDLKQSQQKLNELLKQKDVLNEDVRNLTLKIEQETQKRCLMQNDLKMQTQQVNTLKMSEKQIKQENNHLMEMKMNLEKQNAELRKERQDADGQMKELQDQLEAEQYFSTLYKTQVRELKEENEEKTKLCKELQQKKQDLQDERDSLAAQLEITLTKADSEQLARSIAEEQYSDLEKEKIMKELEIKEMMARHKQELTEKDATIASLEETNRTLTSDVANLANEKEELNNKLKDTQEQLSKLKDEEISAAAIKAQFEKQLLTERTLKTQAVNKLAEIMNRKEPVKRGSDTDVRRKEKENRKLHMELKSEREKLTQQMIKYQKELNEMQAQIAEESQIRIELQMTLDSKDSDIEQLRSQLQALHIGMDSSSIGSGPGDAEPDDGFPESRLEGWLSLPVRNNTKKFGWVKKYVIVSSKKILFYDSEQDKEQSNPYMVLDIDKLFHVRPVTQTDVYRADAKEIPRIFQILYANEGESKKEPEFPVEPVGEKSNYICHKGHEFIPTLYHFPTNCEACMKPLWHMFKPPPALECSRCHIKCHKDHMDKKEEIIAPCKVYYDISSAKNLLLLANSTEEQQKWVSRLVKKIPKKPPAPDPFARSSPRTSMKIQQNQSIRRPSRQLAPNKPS
ROCKI, sequence (Q13464 whole entry): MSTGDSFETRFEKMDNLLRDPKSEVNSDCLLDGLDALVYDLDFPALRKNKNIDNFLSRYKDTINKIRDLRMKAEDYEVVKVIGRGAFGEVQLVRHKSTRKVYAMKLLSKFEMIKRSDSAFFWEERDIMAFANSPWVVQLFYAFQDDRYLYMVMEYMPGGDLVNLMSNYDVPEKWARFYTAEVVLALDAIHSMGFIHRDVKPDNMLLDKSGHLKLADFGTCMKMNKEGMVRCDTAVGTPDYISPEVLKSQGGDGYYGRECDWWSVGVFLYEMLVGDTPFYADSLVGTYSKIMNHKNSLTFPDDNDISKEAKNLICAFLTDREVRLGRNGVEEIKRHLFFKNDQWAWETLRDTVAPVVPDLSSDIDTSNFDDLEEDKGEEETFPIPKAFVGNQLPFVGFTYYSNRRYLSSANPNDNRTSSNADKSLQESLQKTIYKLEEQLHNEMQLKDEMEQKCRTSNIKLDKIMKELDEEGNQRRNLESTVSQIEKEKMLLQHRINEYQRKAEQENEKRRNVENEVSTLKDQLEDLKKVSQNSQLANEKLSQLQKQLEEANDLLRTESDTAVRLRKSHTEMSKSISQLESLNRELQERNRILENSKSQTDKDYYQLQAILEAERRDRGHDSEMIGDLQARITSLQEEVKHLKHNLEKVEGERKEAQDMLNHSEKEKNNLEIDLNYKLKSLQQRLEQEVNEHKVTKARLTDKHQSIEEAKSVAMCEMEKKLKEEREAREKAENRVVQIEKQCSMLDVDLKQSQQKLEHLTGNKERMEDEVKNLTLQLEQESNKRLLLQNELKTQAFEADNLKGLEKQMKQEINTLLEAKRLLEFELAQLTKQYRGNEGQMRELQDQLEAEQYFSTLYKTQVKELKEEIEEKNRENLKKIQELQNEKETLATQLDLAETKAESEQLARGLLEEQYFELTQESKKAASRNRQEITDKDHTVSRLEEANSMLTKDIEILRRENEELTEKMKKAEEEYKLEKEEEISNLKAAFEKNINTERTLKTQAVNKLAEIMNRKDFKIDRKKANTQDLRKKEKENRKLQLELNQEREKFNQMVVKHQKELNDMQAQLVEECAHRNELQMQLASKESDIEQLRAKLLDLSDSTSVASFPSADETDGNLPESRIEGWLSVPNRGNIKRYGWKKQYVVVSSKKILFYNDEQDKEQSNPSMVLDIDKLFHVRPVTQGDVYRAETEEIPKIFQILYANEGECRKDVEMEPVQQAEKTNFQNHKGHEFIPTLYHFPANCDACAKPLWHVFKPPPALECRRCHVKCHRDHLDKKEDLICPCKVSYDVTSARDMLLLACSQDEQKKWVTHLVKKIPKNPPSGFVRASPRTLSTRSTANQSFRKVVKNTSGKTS
MSK1, sequence (O75582 whole entry, species assumed): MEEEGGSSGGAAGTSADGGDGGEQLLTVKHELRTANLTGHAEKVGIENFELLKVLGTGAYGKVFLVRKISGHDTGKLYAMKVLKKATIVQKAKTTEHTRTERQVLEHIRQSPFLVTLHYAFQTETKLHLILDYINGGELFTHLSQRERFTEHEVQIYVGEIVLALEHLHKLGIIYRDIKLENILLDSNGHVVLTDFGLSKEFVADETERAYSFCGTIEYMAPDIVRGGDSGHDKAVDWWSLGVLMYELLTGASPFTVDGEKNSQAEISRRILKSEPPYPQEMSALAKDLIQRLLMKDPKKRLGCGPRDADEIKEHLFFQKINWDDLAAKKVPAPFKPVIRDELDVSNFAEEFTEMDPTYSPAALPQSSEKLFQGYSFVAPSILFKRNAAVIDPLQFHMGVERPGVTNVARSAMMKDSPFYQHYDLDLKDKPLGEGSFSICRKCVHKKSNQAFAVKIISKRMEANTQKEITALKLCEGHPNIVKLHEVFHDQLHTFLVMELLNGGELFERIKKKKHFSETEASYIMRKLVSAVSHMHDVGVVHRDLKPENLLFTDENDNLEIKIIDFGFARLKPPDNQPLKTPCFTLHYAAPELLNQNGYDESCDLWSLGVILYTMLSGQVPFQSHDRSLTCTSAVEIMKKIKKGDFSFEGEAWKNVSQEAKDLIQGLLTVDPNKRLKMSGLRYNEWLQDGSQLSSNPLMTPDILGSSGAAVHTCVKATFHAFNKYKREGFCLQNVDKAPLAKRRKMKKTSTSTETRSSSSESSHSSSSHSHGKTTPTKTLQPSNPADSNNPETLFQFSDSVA

## CC(N)C1CCN(S(=O)(=O)c2cccc3cnccc23)CC1.Cl.Cl (racemic) [E-23a, (R,S)-N-(5″-isoquinolinesulfonyl)-4-[ethan-1′-amino]piperidine dihydrochloride]
[1]
  proliferation of HEC-1B cells (in words): reduced proliferation
[2]; 10 μM
  relative amount of tube formation: approximately 40 % relative to control
[2]; 50 μM
  relative amount of tube formation: approximately 35 % relative to control
[2]; E-23a 10 and 50 μM
  HUVEC tube formation relative to control (in words): substantially reduced
[3]
  migration, % of the amount observed with Ctl+VEGF: approximately 40%
[4]; FIG. 5, compound at 10 μM, ATP 100 μM, duplicate
  percentage of inhibition of ROCKII: 83%
[4]
  Percent Rock inhibition at 10 micromolar: 97%
[5]; FIG. 5, compound at 10 μM
  percentage of inhibition of ROCK I: 31%
[5]; read-out: IC50, inhibition of ROCKI
  IC50: 20.6 µM
[6]
  B − A/A − B Papp ratio: 1.31
[6]; Caco-2 permeability assay
  permeability (in words): good permeability
[7]; equilibrium dialysis
  availability in plasma (in words): relatively available in the unbound form
[7]
  Bound (%): 7.26%
  Unbound (%): 92.7%
[8]
  Percent Net Neurite Outgrowth at 35 micromolar: 39.0%
[9]
  percentage of inhibition of PRK2: 52%
[10]
  mean tumor size increase, % of initial tumor volume: approximately 156 % of initial tumor volume
[11]; BA-1049 0.01 μM, dihydrochloride
  % Control (single replicate): 96 % Control and 104 % Control
[11]; BA-1049 0.01 μM
  Activity (% Control): 100 % Control
[11]; BA-1049 0.03 μM, dihydrochloride
  % Control (single replicate): 109 % Control and 86 % Control
[11]; BA-1049 0.03 μM
  Activity (% Control): 98 % Control
[11]; BA-1049 0.1 μM, dihydrochloride
  % Control (single replicate): 86 % Control and 102 % Control
[11]; BA-1049 0.1 μM
  Activity (% Control): 94 % Control
[11]; BA-1049 0.3 μM, dihydrochloride
  % Control (single replicate): 62 % Control and 74 % Control
[11]; BA-1049 0.3 μM
  Activity (% Control): 68 % Control
[11]; BA-1049 1 μM, dihydrochloride
  % Control (single replicate): 45 % Control and 50 % Control
[11]; BA-1049 1 μM
  Activity (% Control): 48 % Control
[11]; BA-1049 3 μM, dihydrochloride
  % Control (single replicate): 25 % Control and 27 % Control
[11]; BA-1049 3 μM
  Activity (% Control): 26 % Control
[11]; BA-1049 10 μM, dihydrochloride
  % Control (single replicate): 8 % Control and 16 % Control
[11]; BA-1049 10 μM
  Activity (% Control): 12 % Control
[11]; BA-1049 30 μM
  % Control (single replicate): 4 % Control
  Activity (% Control): 4 % Control
[11]; BA-1049 100 μM, dihydrochloride
  % Control (single replicate): 0 % Control and 5 % Control
[11]; BA-1049 100 μM
  Activity (% Control): 3 % Control
[11]; read-out: IC50, inhibition of ROCK-II(h), ATP 100 μM, duplicate, derived by PRISM
  IC50: 0.791 µM
[12]
  percentage of inhibition of MSK1: 43%

## CC(C)NC[C@H](O)COc1cccc2ccccc12 [(S)-Propranolol, reference compound]
[7]
  Bound (%): 91.3%
  Unbound (%): 8.67%

## CN(N)C1CCN(S(=O)(=O)c2cccc3cnccc23)CC1.Cl.Cl [BA-1043, N-(5′″-isoquinolinesulfonyl)-4-[N′-(1′-methyl)hydrazino]piperidine dihydrochloride]
[4]
  Percent Rock inhibition at 10 micromolar: 61%
[8]
  Percent Net Neurite Outgrowth at 35 micromolar: 15.2%

## CC1=NN(c2ccccc2)C(=O)C1 [Radicut, 3-methyl-1-phenyl-2-pyrazoline-5-one]
[13]
  adverse effect in clinical use (in words): kidney toxicity

## CCCC(N)C1CCN(S(=O)(=O)c2cccc3cnccc23)CC1.Cl.Cl (racemic) [BA-1050, (R,S)-N-(5″-isoquinolinesulfonyl)-4-[butan-1′-amino]piperidine dihydrochloride]
[4]
  Percent Rock inhibition at 10 micromolar: 79%
[8]
  Percent Net Neurite Outgrowth at 35 micromolar: 20.2%

## COc1ccc(C=CC(=O)Nc2ccccc2C(=O)O)cc1OC [Tranilast, N-(3′,4′-dimethoxycinnamoyl)anthranilic acid, reference compound]
[2]; 10 μg/mL
  relative amount of tube formation: approximately 35 % relative to control
[2]; 50 μg/mL
  relative amount of tube formation: approximately 30 % relative to control
[3]
  migration, % of the amount observed with Ctl+VEGF: approximately 30%

## OC[C@@H](O)[C@@H](O)[C@H](O)[C@H](O)CO [[^3H]-Mannitol, reference compound]
[6]
  B − A/A − B Papp ratio: 0.81
